{"source": "patent US20140037620A1", "about": "“Methods of Treating Breast Cancer with Gemcitabine Therapy” (British Columbia Cancer Agency Branch, priority 2012, published 2014)", "key": {"[1]": {"system": "women with locally advanced or metastatic breast cancer", "conditions": "for effect on OS / relative reduction for TTP: GD v D; for relative reduction in mortality from the addition of gemcitabine to docetaxel compared to docetaxel alone: patients with basal-like subtype (PAM50)", "procedure": "Patients were randomly assigned to docetaxel (100 mg/m^2) day 1, every 21 days or gemcitabine (1000 mg/m^2) days 1 and 8 plus docetaxel (75 mg/m^2) day 8. Patients were either previously untreated, had prior anthracycline-based (neo)adjuvant chemotherapy or had received a single prior anthracycline-based chemotherapy regimen for metastatic breast cancer. The Danish Breast Cancer Cooperative Group (DBCG) prepared the original protocol as well as the biomarker supplement, and the Danish National Committee on Biomedical Research Ethics has approved the original protocol as well as the add-on (KF 02-045-01 and H-KF-02-045-01) before their activation. Time to progression (TTP) was the primary endpoint for the original trial as well as this biomarker sub-study (Nielsen et al., JCO 2011; 29:4748-4754). Overall survival (OS) and response rate (RR) were secondary endpoints. TTP was measured from random assignment to date of documented progression with censoring at date of last visit or of death. OS was calculated from date of random assignment to date of death with censoring for surviving patients at last visit date. Time-to-event endpoints (TTP and OS) were estimated by the Kaplan-Meier method, and PAM50 subtypes were compared using the log-rank test. Analyses of PAM50 subtypes were done unadjusted and adjusted for preselected covariates in multivariate Cox proportional hazards models. […] The adjusted model was further stratified for previous chemotherapy (Nielsen et al., JCO 2011; 29:4748-4754). The assumption of proportional hazards was assessed by Schoenfeld residuals. Analyses were done to assess whether treatment effects on TTP and OS varied according to PAM50 subtypes or the levels of preselected variables. The multivariate Cox proportional hazards model was extended by one interaction term at a time. The interaction terms were tested using the Wald test and results were given in a Forest plot. RR was evaluated for patients with measurable disease. […] RRs were compared by using Fisher's exact test."}, "[2]": {"system": "women with locally advanced or metastatic breast cancer", "conditions": "original trial, 337 women, GD v D; cited from earlier work"}}, "note": "Where two headings read alike, the source gives them in different places."}
{"substance": "gemcitabine plus docetaxel [GD]", "values": [{"measurement": "gain in median overall survival, doublet arm compared to monotherapy arm", "setting": "[1]; basal-like patients, Kaplan-Meier estimates", "value": 10, "unit": "months"}, {"measurement": "effect on TTP across PAM50 intrinsic subtypes", "setting": "[1]; multivariate Cox regression, interaction test", "value": "TTP seemed equally improved in PAM50 intrinsic subtypes"}, {"measurement": "effect on OS", "setting": "[1]; patients with HER2-enriched subtype", "value": "significantly worsened OS"}, {"measurement": "risk of TTP events and mortality in the doublet arm compared to single agent docetaxel", "setting": "[1]; patients with HER2 amplified tumors", "value": "higher risk of TTP events"}, {"measurement": "effect on OS", "setting": "[1]; patients with basal-like breast cancer", "value": "significantly improved OS"}, {"measurement": "effect on OS", "setting": "[1]; patients with basal-like breast cancer, listed as gemcitabine and docetaxel", "value": "more substantial reduction in mortality"}, {"measurement": "relative reduction in mortality from the addition of gemcitabine to docetaxel compared to docetaxel alone", "setting": "[1]", "value": 71, "unit": "%"}, {"measurement": "relative reduction in mortality from the addition of gemcitabine to docetaxel compared to docetaxel alone", "setting": "[1]; listed as gemcitabine plus docetaxel", "value": 73, "unit": "%"}, {"measurement": "relative reduction for TTP", "setting": "[1]; patients with basal-like subtype", "value": 63, "unit": "%"}, {"measurement": "benefit from adding gemcitabine to docetaxel", "setting": "[1]; patients with highly proliferative subtypes (non-luminal A)", "value": "No support was found for a more general benefit"}, {"measurement": "survival benefit compared with docetaxel monotherapy", "setting": "[1]; patients with non-basal-like subtypes", "value": "no significant incremental survival benefit"}, {"measurement": "relative reduction for TTP", "setting": "[1]; patients with other (non-basal-like) subtypes", "value": 37, "unit": "%"}, {"measurement": "HR for OS, treatment effect in the original study", "setting": "[2]", "value": 0.94}, {"measurement": "HR for TTP, treatment effect in the original study", "setting": "[2]", "value": 0.68}]}
